Columns and labels:
S. pneumoniae D39V [1] = experiment: fitness (endpoint OD595 vs no drug) (fraction); higher = more growth
In short: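 Fitness is computed from the optical density at which cultures reach stationary phase, divided by the robust mean of no-drug control wells. Any value above 1 is set to 1. Cultures started at OD595 0.01 in 384-well plates with TSB, LB Lennox or CY at 37 °C, and OD595 was read every 30 min for 14 h against a first-reading background.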

S. aureus DSM 20231 = experiment: Bliss interaction score (quartile over a dose matrix) (fitness difference); higher = more antagonism (negative = synergy)
In short: (§1)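 Fitness was derived from optical density at entry into stationary phase, divided by the robust mean of the no-drug wells on the same plate. That reading was taken as OD595, and the ratio was capped at 1. Single-drug fitness was inferred from the combination data. The Bliss score, observed fitness minus the expected product of single-drug fitness, was summarised as quartiles over technical, biological and donor/recipient replicates.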

S. pneumoniae D39V [2] = experiment: as above
In short: as §1

B. subtilis 168 = experiment: as above
In short: as §1

S. aureus Newman = experiment: as above
In short: as §1
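Throughout, for Bliss interaction score (quartile over a dose matrix): first quartile when negative (synergy) and third quartile when positive (antagonism).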

CCC[C@@H]1C[C@@H](C(=O)N[C@@H]([C@H]2O[C@H](SC)[C@H](O)[C@@H](O)[C@H]2O)[C@H](C)Cl)N(C)C1 [Clindamycin] + CO[C@H]1/C=C/O[C@@]2(C)Oc3c(C)c(O)c4c(O)c(c(/C=N/N5CCN(C)CC5)c(O)c4c3C2=O)NC(=O)/C(C)=C\C=C\[C@H](C)[C@H](O)[C@@H](C)[C@@H](O)[C@@H](C)[C@H](OC(C)=O)[C@@H]1C [Rifampicin]
fitness, S. pneumoniae D39V [1]
Settings	first compound 0.0125 µg/mL	first compound 0.015 µg/mL	first compound 0.025 µg/mL	first compound 0.03 µg/mL	first compound 0.05 µg/mL	first compound 0.06 µg/mL
partner 0.025 µg/mL	0.795	–	0.539	–	0.273	–
partner 0.05 µg/mL	0.811	–	0.523	–	0.215	0.226
partner 0.1 µg/mL	0.341	0.267	0.223	0.212	0.15	0.164

fitness, S. pneumoniae D39V [1], one replicate
Settings	first compound 0.015 µg/mL	first compound 0.03 µg/mL	first compound 0.06 µg/mL
partner 0.025 µg/mL	0.702	0.496	0.229
partner 0.2 µg/mL	0	0	0

Settings	Bliss interaction score
B. subtilis 168	-0.223
S. aureus DSM 20231	0.027
S. aureus Newman	0.0465
S. pneumoniae D39V [2]	-0.077

CCC[C@@H]1C[C@@H](C(=O)N[C@@H]([C@H]2O[C@H](SC)[C@H](O)[C@@H](O)[C@H]2O)[C@H](C)Cl)N(C)C1 [Clindamycin] + C[C@@H](O)[C@H]1C(=O)N2C(C(=O)O)=C(SCCNC=N)C[C@H]12 [Imipenem]
fitness, S. pneumoniae D39V [1]
Settings	first compound 0.0125 µg/mL	first compound 0.015 µg/mL	first compound 0.025 µg/mL	first compound 0.03 µg/mL	first compound 0.05 µg/mL	first compound 0.06 µg/mL
partner 0.005 µg/mL	0.753	–	0.5	–	0.213	–
partner 0.0065 µg/mL	–	0.843	–	0.628	–	0.176
partner 0.01 µg/mL	0.763	–	0.486	–	0.202	–
partner 0.013 µg/mL	–	0.877	–	0.744	–	0.46
partner 0.02 µg/mL	0.758	–	0.468	–	0.19	–
partner 0.026 µg/mL	–	0.824	–	0.644	–	0.299

Settings	Bliss interaction score
B. subtilis 168	0.159
S. aureus DSM 20231	0.0276
S. aureus Newman	-0.0198
S. pneumoniae D39V [2]	-0.0804

CCC[C@@H]1C[C@@H](C(=O)N[C@@H]([C@H]2O[C@H](SC)[C@H](O)[C@@H](O)[C@H]2O)[C@H](C)Cl)N(C)C1 [Clindamycin] + Clc1ccc(COC(Cn2ccnc2)c2ccc(Cl)cc2Cl)c(Cl)c1 [Miconazole]
S. pneumoniae D39V [1]
Settings	fitness
first compound 0.0125 µg/mL, partner 1.25 µg/mL	0.688
first compound 0.0125 µg/mL, partner 2.5 µg/mL	0.758
first compound 0.0125 µg/mL, partner 5 µg/mL	0.761
first compound 0.015 µg/mL, partner 1.073 µg/mL	0.944
first compound 0.015 µg/mL, partner 2.145 µg/mL	0.945
first compound 0.015 µg/mL, partner 4.29 µg/mL	0.906
first compound 0.025 µg/mL, partner 1.25 µg/mL	0.433
first compound 0.025 µg/mL, partner 2.5 µg/mL	0.485
first compound 0.025 µg/mL, partner 5 µg/mL	0.444
first compound 0.03 µg/mL, partner 1.073 µg/mL	0.772
first compound 0.03 µg/mL, partner 2.145 µg/mL	0.777
first compound 0.03 µg/mL, partner 4.29 µg/mL	0.665
first compound 0.05 µg/mL, partner 1.25 µg/mL	0.213
first compound 0.05 µg/mL, partner 2.5 µg/mL	0.235
first compound 0.05 µg/mL, partner 5 µg/mL	0.252
first compound 0.06 µg/mL, partner 4.29 µg/mL	0.33

Settings	Bliss interaction score
B. subtilis 168	0.0322
S. aureus DSM 20231	-0.0342
S. aureus Newman	-0.0596
S. pneumoniae D39V [2]	-0.0991

CCC[C@@H]1C[C@@H](C(=O)N[C@@H]([C@H]2O[C@H](SC)[C@H](O)[C@@H](O)[C@H]2O)[C@H](C)Cl)N(C)C1 [Clindamycin] + O=C1CN(/N=C/c2ccc([N+](=O)[O-])o2)C(=O)N1 [Nitrofurantoin]
fitness, S. pneumoniae D39V [1]
Settings	first compound 0.0125 µg/mL	first compound 0.015 µg/mL	first compound 0.025 µg/mL	first compound 0.03 µg/mL	first compound 0.05 µg/mL	first compound 0.06 µg/mL
partner 1.285 µg/mL	–	0.848	–	0.692	–	0.51
partner 2 µg/mL	0.583	–	0.302	–	0.0691	–
partner 2.57 µg/mL	–	0.886	–	0.708	–	0.445
partner 4 µg/mL	0.503	–	0.224	–	0.0581	–
partner 8 µg/mL	0.339	–	0.126	–	0.0351	–

S. pneumoniae D39V [1], partner 5.14 µg/mL, one replicate
Settings	fitness
first compound 0.015 µg/mL	0.809
first compound 0.03 µg/mL	0.685
first compound 0.06 µg/mL	0.319

Settings	Bliss interaction score
B. subtilis 168	-0.113
S. aureus DSM 20231	-0.0327
S. aureus Newman	-0.127
S. pneumoniae D39V [2]	-0.173

O=C(O[C@@H]1Cc2c(O)cc(O)cc2O[C@@H]1c1cc(O)c(O)c(O)c1)c1cc(O)c(O)c(O)c1 [EGCG] + CO[C@H]1/C=C/O[C@@]2(C)Oc3c(C)c(O)c4c(O)c(c(/C=N/N5CCN(C)CC5)c(O)c4c3C2=O)NC(=O)/C(C)=C\C=C\[C@H](C)[C@H](O)[C@@H](C)[C@@H](O)[C@@H](C)[C@H](OC(C)=O)[C@@H]1C [Rifampicin]
fitness, S. pneumoniae D39V [1]
Settings	first compound 12.5 µg/mL	first compound 25 µg/mL	first compound 50 µg/mL
partner 0.025 µg/mL	0.923	0.925	≥ 1
partner 0.05 µg/mL	0.931	–	0.942
partner 0.1 µg/mL	–	–	0.496

S. pneumoniae D39V [1], partner 0.2 µg/mL, one replicate
Settings	fitness
first compound 12.5 µg/mL	0
first compound 25 µg/mL	0
first compound 50 µg/mL	0

Settings	Bliss interaction score
B. subtilis 168	0.0434
S. aureus DSM 20231	-0.0623
S. aureus Newman	-0.0254
S. pneumoniae D39V [2]	-0.0502

O=C(O[C@@H]1Cc2c(O)cc(O)cc2O[C@@H]1c1cc(O)c(O)c(O)c1)c1cc(O)c(O)c(O)c1 [EGCG] + C[C@@H](O)[C@H]1C(=O)N2C(C(=O)O)=C(SCCNC=N)C[C@H]12 [Imipenem]
fitness, S. pneumoniae D39V [1]
Settings	partner 0.005 µg/mL	partner 0.0065 µg/mL	partner 0.01 µg/mL	partner 0.013 µg/mL	partner 0.02 µg/mL	partner 0.026 µg/mL
first compound 12.5 µg/mL	0.952	0.863	0.875	0.78	0.9	0.563
first compound 25 µg/mL	0.985	0.833	0.971	0.959	0.842	–
first compound 50 µg/mL	0.912	0.896	0.939	0.799	≥ 1	0.899

Settings	Bliss interaction score
B. subtilis 168	0.185
S. aureus DSM 20231	-0.0357
S. aureus Newman	0.0318
S. pneumoniae D39V [2]	0.0607
